This is an account of results in paper PMC3470872 (Biochemical pharmacology, 2012).

The pIC50 is the IC50 on a negative log10 scale, so that one unit is a factor of ten. As usually defined, the inhibition is the share of the control response that was lost under treatment.

One experiment addresses T1, recombinant human CES2 (Homo sapiens, UniProt O00748).
T1 sequence (O00748 27-559): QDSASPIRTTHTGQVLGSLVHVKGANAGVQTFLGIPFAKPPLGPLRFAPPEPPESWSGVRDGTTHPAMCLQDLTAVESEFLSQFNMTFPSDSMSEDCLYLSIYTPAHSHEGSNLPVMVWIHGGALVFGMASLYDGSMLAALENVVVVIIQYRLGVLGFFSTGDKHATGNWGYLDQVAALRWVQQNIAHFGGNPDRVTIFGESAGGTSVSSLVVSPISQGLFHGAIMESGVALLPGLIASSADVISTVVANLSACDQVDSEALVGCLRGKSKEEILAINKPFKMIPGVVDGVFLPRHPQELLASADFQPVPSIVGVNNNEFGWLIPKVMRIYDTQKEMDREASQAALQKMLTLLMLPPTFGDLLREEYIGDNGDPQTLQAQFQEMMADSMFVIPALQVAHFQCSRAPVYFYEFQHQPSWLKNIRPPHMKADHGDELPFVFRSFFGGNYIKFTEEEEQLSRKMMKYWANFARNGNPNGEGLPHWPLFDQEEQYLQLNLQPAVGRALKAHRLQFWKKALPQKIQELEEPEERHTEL
Kind of experiment: Inactivation kinetics of recombinant CES2, pNPV hydrolysis progress curves. The format is biochemical. Particulars: CES1 and MAGL versus CES2.

Experiment [1] has as its target T2, CES1 (Homo sapiens, UniProt P23141).
T2 sequence (P23141 18-567): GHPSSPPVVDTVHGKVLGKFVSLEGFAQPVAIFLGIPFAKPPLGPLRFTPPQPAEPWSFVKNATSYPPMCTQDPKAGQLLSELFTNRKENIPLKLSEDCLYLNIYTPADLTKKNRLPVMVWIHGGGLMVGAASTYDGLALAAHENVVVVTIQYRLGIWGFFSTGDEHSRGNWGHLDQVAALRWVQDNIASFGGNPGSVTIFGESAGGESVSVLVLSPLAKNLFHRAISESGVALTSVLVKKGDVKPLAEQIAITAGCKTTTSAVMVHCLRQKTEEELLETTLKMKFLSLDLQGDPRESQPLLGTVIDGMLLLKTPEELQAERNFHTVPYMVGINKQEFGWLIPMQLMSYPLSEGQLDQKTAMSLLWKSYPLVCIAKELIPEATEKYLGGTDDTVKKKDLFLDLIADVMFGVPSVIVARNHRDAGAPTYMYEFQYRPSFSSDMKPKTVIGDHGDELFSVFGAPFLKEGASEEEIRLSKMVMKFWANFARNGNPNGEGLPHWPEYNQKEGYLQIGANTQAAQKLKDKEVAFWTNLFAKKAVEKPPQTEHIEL
The format is biochemical.

The test system of the next experiment is HepG2 cells. As to the kind of experiment: Inhibition and recovery of esterase activity in intact HepG2 cells. The experiment is classed as cell-based.
The next experiment relates to MAGL. To be noted: mouse brain membrane proteome; cited from earlier work.
Experiment [2] deals with T2, CES1. As to the kind of experiment: Esterase activity of HepG2 cell lysate in presence of S-3030. The format is biochemical.
A further experiment concerns FAAH. To be noted: rat brain membranes; cited from earlier work.
For the next experiment, the target named is rat ortholog of CES1. To be noted: cited from earlier work.
For experiment [3], the target named is T2, CES1. As to the kind of experiment: Inactivation kinetics of recombinant CES1, pNPV hydrolysis progress curves. The experiment is classed as biochemical. To be noted: comparison with oxon values of ref 24.

pIC50: −log10 of the molar value. Values joined by “and” are separate entries in the source; they are usually repeats but may differ in a detail not shown here. Equal entries are not always repeated.

With `O=C(Oc1ccc([N+](=O)[O-])cc1)N1CCC(C(O)(c2ccc3c(c2)OCO3)c2ccc3c(c2)OCO3)CC1` [JZL184], on recombinant human CES2, the “bimolecular rate constants for CES1 and MAGL greater than for CES2” value is reported as 17-38 fold. Besides, at CES1 [1], the “reactivation rate slower than CES1 inhibited by URB597” value was 4.5 x; the “t1/2 (half life of reactivation)” value is 49 ± 15 h and 49 h and 49 ± 15^b h. In addition, the “esterase activity remained depressed” value with HepG2 cells (10 μM, 30 min treatment, over 48 hr after treatment) is reported as ~ 90%. Besides, the “inhibition of esterase activity” value with HepG2 cells (10 μM, 30 min treatment, time 0, pNPV substrate) is on record as no less than 90%. Moreover, the pIC50 in the experiment with MAGL is […].
As to `O=C1C(=O)c2sccc2-c2ccsc21` [S-3030, Thieno[3,2-e][1]benzothiophene-4,5-dione], the “esterase activity sensitive to S-3030-mediated inhibition” value at CES1 [2] (activity recovered by 48 hr following URB597 treatment (data not shown)) was 74%. In addition, the “share of esterase activity accounted for by CES1 (S-3030 sensitive)” value on CES1 [2] (untreated HepG2 cell lysate, 10 μM S-3030, pNPV substrate) stood at 71.5±2.1%.
For the compound `NC(=O)c1cccc(-c2cccc(OC(=O)NC3CCCCC3)c2)c1` [URB597], on CES1 [1], the “t1/2 (half life of reactivation)” value was 11 h and 11 ± 4^a h. The “esterase activity, % of the control activity” value in the experiment on HepG2 cells (10 μM, 30 min treatment, recovery over 48 hr) turned out to be 50%. The inhibition at 10 µM with HepG2 cells (Homo sapiens, HepG2, 0.5 h, read-out: inhibition of esterase activity) is no less than 90%. Moreover, in the experiment with FAAH, the pIC50 is 8.34.
For the compound `CNC(=O)Oc1cccc2ccccc12` [carbaryl], the “ki (bimolecular rate constant)” value on rat ortholog of CES1 was 856 M⁻¹ s⁻¹.
In the case of chlorpyrifos oxon, the “more reactive toward CES1 than JZL184” value at CES1 [3] was found to be 500 x.
